Results: patent US8471005B2 (Cephalon, Inc., priority 2008, dated 2013)

Columns and labels:
JAK2 = target: T1, JAK2 (Homo sapiens, UniProt O60674); test: Recombinant Human JAK2 Kinase Assay (TRF); type: biochemical; conditions: JAK2 kinase inhibition, 0.2 μM ATP; read-out: JAK2 Potency
T1 construct: host or cells: baculovirus expression system
Procedure, shortened: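 TRF read-out: Eu-N1 PY100 anti-phosphotyrosine antibody detects product. Enzyme is baculovirus-expressed JAK2 at 15 ng/ml; substrate is a biotinyl 15-mer peptide bound to Neutravidin-coated wells. Buffer 20 mM HEPES pH 7.2, 0.2 μM ATP, 1 mM MnCl2, 0.1% BSA, 2.5% DMSO final; 20 min, RT.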

ALK = target: T2, ALK (Homo sapiens, UniProt Q9UM73); test: ALK Kinase Assay (ELISA/TRF, PLC-γ substrate); type: biochemical; conditions: ALK kinase inhibition, 1 μM ATP; read-out: ALK Potency
T2 construct: host or cells: baculovirus expression system
T2 sequence (Q9UM73 19-1620): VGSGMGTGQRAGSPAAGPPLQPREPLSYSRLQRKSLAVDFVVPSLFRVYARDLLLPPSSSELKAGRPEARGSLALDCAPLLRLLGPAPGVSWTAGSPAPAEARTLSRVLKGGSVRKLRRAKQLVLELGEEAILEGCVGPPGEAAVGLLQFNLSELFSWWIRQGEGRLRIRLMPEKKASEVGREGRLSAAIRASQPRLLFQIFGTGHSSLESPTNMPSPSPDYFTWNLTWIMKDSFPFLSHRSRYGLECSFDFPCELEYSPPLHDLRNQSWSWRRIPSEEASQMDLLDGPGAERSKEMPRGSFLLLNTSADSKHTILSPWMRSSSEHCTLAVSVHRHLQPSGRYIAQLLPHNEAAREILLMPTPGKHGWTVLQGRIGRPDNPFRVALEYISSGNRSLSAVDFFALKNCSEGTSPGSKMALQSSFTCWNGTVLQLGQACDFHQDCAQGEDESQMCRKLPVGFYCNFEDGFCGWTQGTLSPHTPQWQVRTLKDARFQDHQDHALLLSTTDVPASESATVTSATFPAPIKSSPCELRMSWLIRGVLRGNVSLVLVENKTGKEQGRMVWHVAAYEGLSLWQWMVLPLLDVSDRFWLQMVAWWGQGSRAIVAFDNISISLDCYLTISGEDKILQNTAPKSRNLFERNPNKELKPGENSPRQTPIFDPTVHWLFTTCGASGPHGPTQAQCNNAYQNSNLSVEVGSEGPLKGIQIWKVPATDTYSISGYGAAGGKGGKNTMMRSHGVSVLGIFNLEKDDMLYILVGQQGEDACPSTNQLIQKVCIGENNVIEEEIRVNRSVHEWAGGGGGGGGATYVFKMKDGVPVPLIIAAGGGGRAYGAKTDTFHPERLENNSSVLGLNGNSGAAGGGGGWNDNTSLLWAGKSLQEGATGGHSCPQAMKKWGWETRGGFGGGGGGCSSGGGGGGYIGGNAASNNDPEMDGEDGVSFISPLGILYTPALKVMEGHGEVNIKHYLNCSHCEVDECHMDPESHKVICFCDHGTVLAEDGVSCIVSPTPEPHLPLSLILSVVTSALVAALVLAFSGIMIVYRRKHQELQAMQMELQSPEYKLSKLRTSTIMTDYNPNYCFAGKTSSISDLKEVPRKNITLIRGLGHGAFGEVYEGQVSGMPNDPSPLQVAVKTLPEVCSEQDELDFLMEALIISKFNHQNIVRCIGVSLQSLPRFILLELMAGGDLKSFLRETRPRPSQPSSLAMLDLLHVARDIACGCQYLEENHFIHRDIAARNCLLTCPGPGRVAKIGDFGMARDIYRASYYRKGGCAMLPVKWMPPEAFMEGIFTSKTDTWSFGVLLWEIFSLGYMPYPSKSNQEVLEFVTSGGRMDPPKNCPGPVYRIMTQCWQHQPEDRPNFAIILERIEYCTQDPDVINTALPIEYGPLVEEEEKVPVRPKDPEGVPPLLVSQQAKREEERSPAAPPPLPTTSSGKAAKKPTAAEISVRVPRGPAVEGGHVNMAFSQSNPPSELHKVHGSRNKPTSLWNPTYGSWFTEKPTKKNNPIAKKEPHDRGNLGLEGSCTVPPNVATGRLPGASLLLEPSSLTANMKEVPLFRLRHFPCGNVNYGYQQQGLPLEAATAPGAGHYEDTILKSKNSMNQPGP
Procedure, shortened: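 PLC-γ substrate coated at 10 μg/mL in TBS; reaction started with 30 ng/ml ALK, run 15 min at 37° C. Phosphoproduct detected by TRF with Eu-N1-labeled PT66 anti-phosphotyrosine antibody. IC50 from sigmoidal variable-slope fit of percent inhibition versus log concentration.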

T1 sequence (O60674 whole entry): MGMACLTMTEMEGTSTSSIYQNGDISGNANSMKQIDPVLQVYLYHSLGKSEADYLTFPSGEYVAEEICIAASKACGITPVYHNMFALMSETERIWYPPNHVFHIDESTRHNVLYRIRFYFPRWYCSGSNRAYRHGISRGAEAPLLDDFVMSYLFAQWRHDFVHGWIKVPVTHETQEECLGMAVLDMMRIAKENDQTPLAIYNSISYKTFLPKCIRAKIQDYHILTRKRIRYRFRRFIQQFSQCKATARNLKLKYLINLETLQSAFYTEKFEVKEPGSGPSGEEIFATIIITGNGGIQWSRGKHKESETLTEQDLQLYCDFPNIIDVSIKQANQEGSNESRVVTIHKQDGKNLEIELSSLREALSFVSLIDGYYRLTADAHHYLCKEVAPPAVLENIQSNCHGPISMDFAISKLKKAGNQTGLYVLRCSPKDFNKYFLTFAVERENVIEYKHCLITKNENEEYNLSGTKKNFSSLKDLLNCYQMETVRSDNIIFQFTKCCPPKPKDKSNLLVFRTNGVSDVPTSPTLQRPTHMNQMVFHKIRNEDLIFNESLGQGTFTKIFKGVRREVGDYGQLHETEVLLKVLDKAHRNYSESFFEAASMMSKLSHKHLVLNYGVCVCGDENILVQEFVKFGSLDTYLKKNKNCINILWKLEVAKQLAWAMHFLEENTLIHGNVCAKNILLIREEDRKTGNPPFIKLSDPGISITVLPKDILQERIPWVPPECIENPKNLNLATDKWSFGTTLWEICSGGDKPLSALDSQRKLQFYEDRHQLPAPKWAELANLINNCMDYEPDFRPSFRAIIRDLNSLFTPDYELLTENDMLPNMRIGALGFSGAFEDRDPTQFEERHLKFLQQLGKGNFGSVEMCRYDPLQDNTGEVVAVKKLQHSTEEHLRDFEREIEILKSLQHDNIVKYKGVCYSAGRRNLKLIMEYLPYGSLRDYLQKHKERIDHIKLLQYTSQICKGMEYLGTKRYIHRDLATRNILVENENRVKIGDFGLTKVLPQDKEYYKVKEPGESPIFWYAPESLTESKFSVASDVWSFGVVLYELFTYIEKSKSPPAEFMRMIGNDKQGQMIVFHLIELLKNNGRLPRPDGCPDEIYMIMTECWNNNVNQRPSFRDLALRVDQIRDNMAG

SMILES	IC50 (JAK2)	IC50 (ALK)
CN1CCC(C(=O)N2CCC(c3ccc(Nc4ncc5ccc(-c6ccccc6N(C)S(C)(=O)=O)n5n4)cc3)CC2)CC1 [Example 502, N-Methyl-N-[2-(2-{4-[1-(1-methyl-piperidine-4-carbonyl)-piperidin-4-yl]-phenylamino}-pyrrolo[2,1-f][1,2,4]triazin-7-yl)-phenyl]-methanesulfonamide]	< 100 nM	< 100 nM
CN1CCN(C(=O)N2CCC(c3ccc(Nc4ncc5ccc(-c6ccccc6N(C)S(C)(=O)=O)n5n4)cc3)CC2)CC1 [Example 503, N-Methyl-N-[2-(2-{4-[1-(4-methyl-piperazine-1-carbonyl)-piperidin-4-yl]-phenylamino}-pyrrolo[2,1-f][1,2,4]triazin-7-yl)-phenyl]-methanesulfonamide]	< 100 nM	< 100 nM
COc1cc(Cn2ccnc2C)ccc1Nc1ncc2ccc(-c3ccccc3N(C)S(C)(=O)=O)n2n1 [Example 505, N-(2-{2-[2-Methoxy-4-(2-methyl-imidazol-1-ylmethyl)-phenylamino]-pyrrolo[2,1-f][1,2,4]triazin-7-yl}-phenyl)-N-methyl-methanesulfonamide]	1000 to 10000 nM	< 100 nM
COc1cc(Cn2ccnc2C)ccc1Nc1ncc2ccc(-c3ccccc3OC)n2n1 [Example 506, [2-Methoxy-4-(2-methyl-imidazol-1-ylmethyl)-phenyl]-[7-(2-methoxy-phenyl)-pyrrolo[2,1-f][1,2,4]triazin-2-yl]-amine]	100 to 1000 nM	< 100 nM
COc1ccccc1-c1ccc2cnc(Nc3ccc(N4CCN(C)CC4)cc3Cl)nn12 [Example 508, [2-Chloro-4-(4-methyl-piperazin-1-yl)-phenyl]-[7-(2-methoxy-phenyl)-pyrrolo[2,1-f][1,2,4]triazin-2-yl]-amine]	< 100 nM	< 100 nM
COc1cc(N2CCC(N3CCOCC3)CC2)ccc1Nc1ncc2ccc(-c3c(F)cccc3OC)n2n1 [Example 509, [7-(2-Fluoro-6-methoxy-phenyl)-pyrrolo[2,1-f][1,2,4]triazin-2-yl]-[2-methoxy-4-(4-morpholin-4-yl-piperidin-1-yl)-phenyl]-amine]	< 100 nM	< 100 nM
COc1cc(N2CCC(N3CCOCC3)CC2)ccc1Nc1ncc2ccc(-c3ccc(F)cc3OC)n2n1 [Example 510, [7-(4-Fluoro-2-methoxy-phenyl)-pyrrolo[2,1-f][1,2,4]triazin-2-yl]-[2-methoxy-4-(4-morpholin-4-yl-piperidin-1-yl)-phenyl]-amine]	< 100 nM	< 100 nM
COc1cc(N2CCC(N3CCOCC3)CC2)ccc1Nc1ncc2ccc(-c3ccccc3C#N)n2n1 [Example 511, 2-{2-[2-Methoxy-4-(4-morpholin-4-yl-piperidin-1-yl)-phenylamino]-pyrrolo[2,1-f][1,2,4]triazin-7-yl}-benzonitrile]	< 100 nM	< 100 nM
COc1cc(N2CCC(N3CCOCC3)CC2)ccc1Nc1ncc2ccc(-c3cccc4cccnc34)n2n1 [Example 512, [2-Methoxy-4-(4-morpholin-4-yl-piperidin-1-yl)-phenyl]-(7-quinolin-8-yl-pyrrolo[2,1-f][1,2,4]triazin-2-yl)-amine]	1000 to 10000 nM	100 to 1000 nM
N#Cc1ccccc1-c1ccc2cnc(Nc3ccc(C4CCN(CC(N)=O)CC4)cc3)nn12 [Example 513, 2-(4-{4-[7-(2-Cyano-phenyl)-pyrrolo[2,1-f][1,2,4]triazin-2-ylamino]-phenyl}-piperidin-1-yl)-acetamide]	< 100 nM	< 100 nM
NC(=O)CN1CCC(c2ccc(Nc3ncc4ccc(-c5cccc6cccnc56)n4n3)cc2)CC1 [Example 514, 2-{4-[4-(7-Quinolin-8-yl-pyrrolo[2,1-f][1,2,4]triazin-2-ylamino)-phenyl]-piperidin-1-yl}-acetamide]	< 100 nM	1000 to 10000 nM
COc1cc(C2CCN(CC(N)=O)CC2)ccc1Nc1ncc2cc(C)c(-c3ccccc3N(C)S(C)(=O)=O)n2n1 [Example 515, 2-[4-(4-{7-[2-(Methanesulfonyl-methyl-amino)-phenyl]-6-methyl-pyrrolo[2,1-f][1,2,4]triazin-2-ylamino}-3-methoxy-phenyl)-piperidin-1-yl]-acetamide]	1000 to 10000 nM	1000 to 10000 nM
Cc1cc2cnc(Nc3ccc(C4CCN(CC(N)=O)CC4)cc3)nn2c1-c1ccccc1N(C)S(C)(=O)=O [Example 516, 2-[4-(4-{7-[2-(Methanesulfonyl-methyl-amino)-phenyl]-6-methyl-pyrrolo[2,1-f][1,2,4]triazin-2-ylamino}-phenyl)-piperidin-1-yl]-acetamide]	< 100 nM	1000 to 10000 nM
COc1cc(C2CCN(CC(N)=O)CC2)ccc1Nc1ncc2ccc(-c3ccccc3C#N)n2n1 [Example 517, 2-(4-{4-[7-(2-Cyano-phenyl)-pyrrolo[2,1-f][1,2,4]triazin-2-ylamino]-3-methoxy-phenyl}-piperidin-1-yl)-acetamide]	100 to 1000 nM	< 100 nM
COc1cc2c(cc1Nc1ncc3ccc(-c4cccc5c4OCC5)n3n1)CCN(C[C@@H](C)O)CC2 [Example 522, (R)-1-{7-[7-(2,3-Dihydro-benzofuran-7-yl)-pyrrolo[2,1-f]triazin-2-ylamino]-8-methoxy-1,2,4,5-tetrahydro-benzo[d]azepin-3-yl}-propan-2-ol]	100 to 1000 nM	< 100 nM
COc1cc2c(cc1Nc1ncc3ccc(-c4cccc(S(=O)(=O)NC5CC5)c4)n3n1)CCN(C[C@@H](C)O)CC2 [Example 523, N-Cyclopropyl-3-{2-[3-((R)-2-hydroxy-propyl)-8-methoxy-2,3,4,5-tetrahydro-1H-benzo[d]azepin-7-ylamino]-pyrrolo[2,1-f][1,2,4]triazin-7-yl}benzenesulfonamide]	100 to 1000 nM	< 100 nM
COc1cc2c(cc1Nc1ncc3ccc(-c4cccc(S(=O)(=O)NC5CC5)c4)n3n1)CCN(CC(N)=O)CC2 [Example 524, 2-{7-[7-(3-Cyclopropylsulfamoyl-phenyl)-pyrrolo[2,1-f][1,2,4]triazin-2-ylamino]-8-methoxy-1,2,4,5-tetrahydro-benzo[d]azepin-3-yl}-acetamide]	100 to 1000 nM	< 100 nM
COc1cc(N2CCC(N3CCN(C(=O)OCc4ccccc4)CC3)CC2)ccc1Nc1ncc2ccc(-c3ccccc3OC)n2n1 [Example 531, 4-(1-{3-Methoxy-4-[7-(2-methoxy-phenyl)-pyrrolo[2,1-f][1,2,4]triazin-2-ylamino]-phenyl}-piperidin-4-yl)-piperazine-1-carboxylic acid benzyl ester]	100 to 1000 nM	< 100 nM
COc1cc(N2CCC(N3CCN(C)CC3)CC2)ccc1Nc1ncc2ccc(-c3ccccc3S(=O)(=O)N(C)C)n2n1 [Example 532, 2-(2-{2-Methoxy-4-[4-(4-methyl-piperazin-1-yl)-piperidin-1-yl]-phenylamino}-pyrrolo[2,1-f][1,2,4]triazin-7-yl)-N,N-dimethyl-benzenesulfonamide]	1000 to 10000 nM	< 100 nM
COc1cc(N2CCC(N3CCN(C)CC3)CC2)ccc1Nc1ncc2ccc(-c3ccc(Cl)nc3)n2n1 [Example 533, [7-(6-Chloro-pyridin-3-yl)-pyrrolo[2,1-f][1,2,4]triazin-2-yl]-{2-methoxy-4-[4-(4-methyl-piperazin-1-yl)-piperidin-1-yl]-phenyl}-amine]	< 100 nM	< 100 nM
COc1cc(N2CCC(N3CCN(C)CC3)CC2)ccc1Nc1ncc2ccc(-c3cccc(S(=O)(=O)NC(C)(C)C)c3)n2n1 [Example 534, N-tert-Butyl-3-(2-{2-methoxy-4-[4-(4-methyl-piperazin-1-yl)-piperidin-1-yl]-phenylamino}-pyrrolo[2,1-f][1,2,4]triazin-7-yl)-benzene sulfonamide]	< 100 nM	< 100 nM
COc1cc(N2CCC(N3CCN(S(C)(=O)=O)CC3)CC2)ccc1Nc1ncc2ccc(-c3ccccc3OC)n2n1 [Example 535, {4-[4-(4-Methanesulfonyl-piperazin-1-yl)-piperidin-1-yl]-2-methoxy-phenyl}-[7-(2-methoxy-phenyl)-pyrrolo[2,1-f][1,2,4]triazin-2-yl]-amine]	< 100 nM	< 100 nM
COCc1ccccc1-c1ccc2cnc(Nc3ccc(N4CCC(N5CCN(C)CC5)CC4)cc3OC)nn12 [Example 538, [7-(2-Methoxymethyl-phenyl)-pyrrolo[2,1-f][1,2,4]triazin-2-yl]-{2-methoxy-4-[4-(4-methyl-piperazin-1-yl)-piperidin-1-yl]-phenyl}-amine]	< 100 nM	< 100 nM
COc1cc(N2CCC(N3CCOCC3)CC2)c(C)cc1Nc1ncc2ccc(-c3ccccc3OC)n2n1 [Example 539]	< 100 nM	< 100 nM
COc1cc(N2CCC(N3CCOCC3)CC2)ccc1Nc1ncc2ccc(-c3ccccc3S(C)(=O)=O)n2n1 [Example 540, [7-(2-Methanesulfonyl-phenyl)-pyrrolo[2,1-f][1,2,4]triazin-2-yl]-[2-methoxy-4-(4-morpholin-4-yl-piperidin-1-yl)-phenyl]-amine]	1000 to 10000 nM	1000 to 10000 nM
COc1cc(N2CCN(C[C@H](C)O)CC2)ccc1Nc1ncc2ccc(-c3ccccc3S(C)(=O)=O)n2n1 [Example 541, (S)-1-(4-{4-[7-(2-Methanesulfonyl-phenyl)-pyrrolo[2,1-f][1,2,4]triazin-2-ylamino]-3-methoxy-phenyl}-piperazin-1-yl)-propan-2-ol]	1000 to 10000 nM	100 to 1000 nM
COc1cc(N2CCC(N3CCOCC3)CC2)ccc1Nc1ncc2ccc(-c3c(OC)cccc3OC)n2n1 [Example 542, [7-(2,6-Dimethoxy-phenyl)-pyrrolo[2,1-f][1,2,4]triazin-2-yl]-[2-methoxy-4-(4-morpholin-4-yl-piperidin-1-yl)-phenyl]-amine]	1000 to 10000 nM	100 to 1000 nM
